According to PubChem BioAssay (NCI):
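Protocol summary: plate cells (96-well), add compound at 5 concentrations, incubate 48 h, interpolate endpoints linearly. TGI denotes the concentration required for complete inhibition of growth.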

Experiments:
Assay in all cases: growth of human tumour cells (NCI), 48 h
U251 CNS = tested on: U251 CNS
A498 renal = tested on: A498 renal
SK-MEL-5 melanoma = tested on: SK-MEL-5 melanoma
DU-145 prostate = tested on: DU-145 prostate
SW-620 colon = tested on: SW-620 colon
CAKI-1 renal = tested on: CAKI-1 renal
LOX IMVI melanoma = tested on: LOX IMVI melanoma
HCT-116 colon = tested on: HCT-116 colon
HL-60(TB) leukemia = tested on: HL-60(TB) leukemia
HS 578T breast = tested on: HS 578T breast
BT-549 breast = tested on: BT-549 breast
SN12C renal = tested on: SN12C renal

O=C(CNC(=O)OCc1ccccc1)NCCCCC(NC(=O)OCc1ccccc1)C(=O)O (configuration not stated)
TGI (U251 CNS): > 100 µM
TGI (A498 renal): > 100 µM
TGI (SK-MEL-5 melanoma): > 100 µM
TGI (DU-145 prostate): > 100 µM
TGI (SW-620 colon): > 100 µM
TGI (CAKI-1 renal): > 100 µM
TGI (LOX IMVI melanoma): > 100 µM
TGI (HCT-116 colon): > 100 µM
TGI (HL-60(TB) leukemia): > 100 µM
TGI (HS 578T breast): > 100 µM
TGI (BT-549 breast): > 100 µM
TGI (SN12C renal): > 100 µM

C[N+](C)(C)CC1Cc2ccccc2C1=O (configuration not stated)
TGI (U251 CNS): > 10 µM
TGI (A498 renal): > 10 µM
TGI (SK-MEL-5 melanoma): > 10 µM
TGI (DU-145 prostate): > 10 µM
TGI (SW-620 colon): 3.84 µM
TGI (CAKI-1 renal): > 8.58 µM
TGI (LOX IMVI melanoma): > 10 µM
TGI (HCT-116 colon): 3.11 µM
TGI (HL-60(TB) leukemia): 4.45 µM
TGI (HS 578T breast): > 10 µM
TGI (BT-549 breast): > 10 µM
TGI (SN12C renal): > 10 µM

CCCOC(=O)c1cc(C(=CCC[C@H]2CC[C@@]3(C)[C@@H](CC[C@@H]4[C@@H]3CC[C@]3(C)[C@@H](C(C)CCCC(C)C)CC[C@@H]43)C2)c2cc(Cl)c(O)c(C(=O)OCCC)c2)cc(Cl)c1O (some centres not stated)
TGI (U251 CNS): > 50 µM
TGI (A498 renal): > 50 µM
TGI (SK-MEL-5 melanoma): > 50 µM
TGI (DU-145 prostate): > 50 µM
TGI (SW-620 colon): > 50 µM
TGI (CAKI-1 renal): > 50 µM
TGI (LOX IMVI melanoma): > 50 µM
TGI (HCT-116 colon): > 50 µM
TGI (HL-60(TB) leukemia): > 50 µM
TGI (HS 578T breast): > 50 µM
TGI (BT-549 breast): > 50 µM
TGI (SN12C renal): > 50 µM

COc1c(O)cc(/C=C/c2cc(O)cc3c2[C@@]2(C(=O)O3)c3c(O)cc(O)cc3OC2c2cccc(O)c2)cc1O (some centres not stated)
TGI (U251 CNS): > 100 µM
TGI (A498 renal): > 100 µM
TGI (SK-MEL-5 melanoma): 72.1 µM
TGI (DU-145 prostate): > 100 µM
TGI (SW-620 colon): > 100 µM
TGI (CAKI-1 renal): > 100 µM
TGI (LOX IMVI melanoma): > 100 µM
TGI (HCT-116 colon): > 100 µM
TGI (HL-60(TB) leukemia): 69.1 µM
TGI (HS 578T breast): > 100 µM
TGI (BT-549 breast): > 100 µM
TGI (SN12C renal): 64.3 µM

Cc1ccc(S(=O)(=O)N(c2ccccc2F)C2CCCCC2O)cc1 (configuration not stated)
TGI (U251 CNS): > 100 µM
TGI (A498 renal): > 100 µM
TGI (SK-MEL-5 melanoma): 56.9 µM
TGI (DU-145 prostate): 96.7 µM
TGI (SW-620 colon): > 100 µM
TGI (LOX IMVI melanoma): > 100 µM
TGI (HCT-116 colon): > 100 µM
TGI (HL-60(TB) leukemia): > 100 µM
TGI (HS 578T breast): > 100 µM
TGI (BT-549 breast): 61.8 µM
TGI (SN12C renal): > 100 µM

O=C(O)CCC(=O)Nc1ccc2c(c1)S(=O)(=O)N(CC(=O)O)C2=O
TGI (U251 CNS): > 100 µM
TGI (A498 renal): > 100 µM
TGI (SK-MEL-5 melanoma): > 100 µM
TGI (DU-145 prostate): > 100 µM
TGI (SW-620 colon): > 100 µM
TGI (CAKI-1 renal): > 100 µM
TGI (LOX IMVI melanoma): > 100 µM
TGI (HCT-116 colon): > 100 µM
TGI (HL-60(TB) leukemia): > 100 µM
TGI (HS 578T breast): > 100 µM
TGI (BT-549 breast): > 100 µM
TGI (SN12C renal): > 100 µM

COC(=O)n1c(=O)nc2c3c(ncn21)Oc1c(c(-c2ccccc2)nn1-c1ccccc1)C3c1ccc(Cl)cc1 (configuration not stated)
TGI (U251 CNS): 3.08 µM
TGI (A498 renal): 5.02 µM
TGI (SK-MEL-5 melanoma): 3.16 µM
TGI (DU-145 prostate): 2.98 µM
TGI (SW-620 colon): 3.06 µM
TGI (CAKI-1 renal): 2.98 µM
TGI (LOX IMVI melanoma): 2.79 µM
TGI (HCT-116 colon): 2.17 µM
TGI (HL-60(TB) leukemia): 3.17 µM
TGI (HS 578T breast): 2.62 µM
TGI (BT-549 breast): 17.7 µM
TGI (SN12C renal): 3.1 µM

COc1ccccc1NC(=O)C(C#N)=C(SC)SC
TGI (U251 CNS): > 100 µM
TGI (A498 renal): > 100 µM
TGI (SK-MEL-5 melanoma): > 100 µM
TGI (DU-145 prostate): > 100 µM
TGI (SW-620 colon): > 100 µM
TGI (CAKI-1 renal): > 100 µM
TGI (LOX IMVI melanoma): > 100 µM
TGI (HCT-116 colon): > 100 µM
TGI (HL-60(TB) leukemia): > 100 µM
TGI (HS 578T breast): > 100 µM
TGI (BT-549 breast): > 100 µM
TGI (SN12C renal): > 100 µM

CCOc1ccc(C2c3[nH]c4ccccc4c3CCN2C(=O)c2cccs2)cc1 (configuration not stated)
TGI (U251 CNS): > 100 µM
TGI (A498 renal): > 100 µM
TGI (SK-MEL-5 melanoma): > 100 µM
TGI (DU-145 prostate): > 100 µM
TGI (SW-620 colon): > 100 µM
TGI (CAKI-1 renal): > 100 µM
TGI (LOX IMVI melanoma): > 100 µM
TGI (HCT-116 colon): > 100 µM
TGI (HL-60(TB) leukemia): > 100 µM
TGI (HS 578T breast): > 100 µM
TGI (BT-549 breast): > 100 µM
TGI (SN12C renal): > 100 µM

CSc1nc(=S)[nH]c2n[nH]c(C)c12
TGI (U251 CNS): > 100 µM
TGI (A498 renal): > 100 µM
TGI (SK-MEL-5 melanoma): > 100 µM
TGI (DU-145 prostate): > 100 µM
TGI (SW-620 colon): > 100 µM
TGI (CAKI-1 renal): > 100 µM
TGI (LOX IMVI melanoma): > 100 µM
TGI (HCT-116 colon): > 100 µM
TGI (HL-60(TB) leukemia): > 100 µM
TGI (HS 578T breast): > 100 µM
TGI (BT-549 breast): > 100 µM
TGI (SN12C renal): > 100 µM

CN(C)c1ccc(C(C#N)N2CCCN(C(C#N)c3ccc(N(C)C)cc3)C2c2ccc(N(C)C)cc2)cc1 (configuration not stated)
TGI (U251 CNS): > 100 µM
TGI (A498 renal): > 100 µM
TGI (SK-MEL-5 melanoma): > 100 µM
TGI (DU-145 prostate): > 100 µM
TGI (SW-620 colon): > 100 µM
TGI (CAKI-1 renal): > 100 µM
TGI (LOX IMVI melanoma): > 100 µM
TGI (HCT-116 colon): > 100 µM
TGI (HL-60(TB) leukemia): > 100 µM
TGI (HS 578T breast): > 100 µM
TGI (BT-549 breast): > 100 µM
TGI (SN12C renal): > 100 µM

O=C(Nc1ccccc1)N1CCNC1=S
TGI (U251 CNS): > 100 µM
TGI (A498 renal): > 100 µM
TGI (SK-MEL-5 melanoma): > 100 µM
TGI (DU-145 prostate): > 100 µM
TGI (SW-620 colon): > 100 µM
TGI (CAKI-1 renal): > 100 µM
TGI (LOX IMVI melanoma): > 100 µM
TGI (HCT-116 colon): > 100 µM
TGI (HL-60(TB) leukemia): > 100 µM
TGI (HS 578T breast): > 100 µM
TGI (BT-549 breast): > 100 µM
TGI (SN12C renal): > 100 µM

CC(=O)Nc1c(C)cc(OCC(=O)O)cc1C
TGI (U251 CNS): > 100 µM
TGI (A498 renal): > 100 µM
TGI (SK-MEL-5 melanoma): > 100 µM
TGI (DU-145 prostate): > 100 µM
TGI (SW-620 colon): > 100 µM
TGI (CAKI-1 renal): > 100 µM
TGI (LOX IMVI melanoma): > 100 µM
TGI (HCT-116 colon): > 100 µM
TGI (HL-60(TB) leukemia): > 100 µM
TGI (HS 578T breast): > 100 µM
TGI (BT-549 breast): > 100 µM
TGI (SN12C renal): > 100 µM

CCOP(=O)(CS(C)=O)O[C@@H]1C[C@H](C)CC[C@H]1C(C)C (some centres not stated)
TGI (U251 CNS): 16.1 µM
TGI (A498 renal): 4.87 µM
TGI (SK-MEL-5 melanoma): 6.85 µM
TGI (DU-145 prostate): 26.2 µM
TGI (SW-620 colon): 14.6 µM
TGI (CAKI-1 renal): 12.8 µM
TGI (LOX IMVI melanoma): 3.77 µM
TGI (HCT-116 colon): > 23.9 µM
TGI (HL-60(TB) leukemia): > 36.4 µM
TGI (HS 578T breast): 11.3 µM
TGI (BT-549 breast): 17.3 µM
TGI (SN12C renal): 6.12 µM
